{
  "source": "paper PMC7083880",
  "about": "(Nature Communications, 2020)",
  "key": {"[1]": {"test_system": "HCC-GR6 cell tumors (wild-type TP53) in nude mice", "test": "In vivo tumor growth, HCC-GR6 cells in nude mice", "set-up": "species or system mouse", "details": "force-fed daily, 5 weeks", "description": "(§1) Next, the capacity of DAP to correct UGA nonsense mutations in vivo was assessed in a mouse model. Four-week-old immunodeficient nude mice were injected with an identical number of Calu-6 cells carrying a UGA nonsense mutation in the TP53 gene, of HCC-GR6 cells having a wild-type TP53 gene or of p53-null 4T1 cells. […] The slower growth of Calu-6-cell-derived tumors in DAP-treated mice is thus likely due to rescue of p53 protein synthesis in these tumors, as expected on the basis of our cell culture experiments and as observed after western-blotting applied to protein extracts of tumors from DAP-treated mice (Supplementary Fig. 8B). Because of the small size of the Calu-6 tumors in DAP-treated mice and thus the high probability of collecting mouse cells upon tumor excision, quantitation of p53 was done in another experiment.\nTo initiate tumor growth, 6-week-old nude mice received subcutaneously 10 million cells suspended in PBS. […] Tumors were measured three times weekly for 5 weeks to determine the tumor volume by the following formula: l (mm) × L (mm) × L (mm). […]\nThe mice were exposed to DMSO or DAP for about five weeks and tumor size was measured three times weekly and plotted on the graph. […]\n(B) Western blot analysis of p53 protein in the Calu-6-cell tumors of the seven DMSO-exposed and seven DAP-exposed mice. […] Error bar= S.D., p-values (p) were calculated using Student's t-test. […]"}, "[2]": {"test_system": "p53-null 4T1 cell tumors in nude mice", "test": "In vivo tumor growth, 4T1 cells in nude mice", "set-up": "species or system mouse", "description": "For each experimental condition, 7 mice were used. b Fourteen nude mice were injected with Calu-6 cells to promote tumor development. […] The arrow indicates the starting time of the exposure to DMSO or DAP. For each experimental condition, 7 mice were used. […] GAPDH was used as loading control. A molecular weight marker is indicated to the left of the gel. The results presented in this figure are representative of two independent experiments. p-values (p) were calculated using Student’s t-test. Source data are provided as a Source Data file.\nas §1\nTo initiate tumor growth, 6-week-old nude mice received subcutaneously 10 million cells suspended in PBS. […] Tumors were measured three times weekly for 5 weeks to determine the tumor volume by the following formula: l (mm) × L (mm) × L (mm). The tumors were then collected and a fraction was used for western blot analysis after protein extraction. All in vivo experiments complied with all relevant ethical regulations for animal testing and research and were authorized by the Ethic Committee 075 under the number 12971-2018010815336092."}},
  "note": "Several values for one entry are separate records, joined by “and”; a condition that tells them apart may be missing. Equal values may be shown once.",
  "data": [
    {"smiles": "Nc1nc(N)c2[nH]cnc2n1", "note": "[DAP, 2,6-diaminopurine]", "values": [
      {"measurement": "Tumor growth vs DMSO, in words", "setting": "[1]", "value": "no significant difference in tumor growth"},
      {"measurement": "tumor size, Average", "setting": "[2]; 4T1, day 4, average of 7 mice", "value": 0.036},
      {"measurement": "tumor size, individual mice", "setting": "[2]; 4T1, day 4, mice 1-7", "value": "0.048 and 0.027"},
      {"measurement": "tumor size, Average", "setting": "[2]; 4T1, day 6, average of 7 mice", "value": 0.08071},
      {"measurement": "tumor size, individual mice", "setting": "[2]; 4T1, day 6, mice 1-7", "value": "0.125 and 0.064 and 0.1 and 0.048"},
      {"measurement": "tumor size, Average", "setting": "[2]; 4T1, day 8, average of 7 mice", "value": 0.09843},
      {"measurement": "tumor size, individual mice", "setting": "[2]; 4T1, day 8, mice 1-7", "value": "0.125 and 0.1 and 0.064"},
      {"measurement": "tumor size, Average", "setting": "[2]; 4T1, day 11, average of 7 mice", "value": 0.1407},
      {"measurement": "tumor size, individual mice", "setting": "[2]; 4T1, day 11, mice 1-7", "value": "0.18 and 0.125"},
      {"measurement": "tumor size, Average", "setting": "[2]; 4T1, day 13, average of 7 mice", "value": 0.227},
      {"measurement": "tumor size, individual mice", "setting": "[2]; 4T1, day 13, mice 1-7", "value": "0.294 and 0.18 and 0.245 and 0.216"},
      {"measurement": "tumor size, Average", "setting": "[2]; 4T1, day 15, average of 7 mice", "value": 0.401},
      {"measurement": "tumor size, individual mice", "setting": "[2]; 4T1, day 15, mice 1-7", "value": "0.448 and 0.567 and 0.294 and 0.343"},
      {"measurement": "tumor size, Average", "setting": "[2]; 4T1, day 18, average of 7 mice", "value": 0.6964},
      {"measurement": "tumor size, individual mice", "setting": "[2]; 4T1, day 18, mice 1-7", "value": "0.648 and 0.8 and 0.567 and 0.9 and 0.512"},
      {"measurement": "tumor size, Average", "setting": "[2]; 4T1, day 20, average of 7 mice", "value": 0.9223},
      {"measurement": "tumor size, individual mice", "setting": "[2]; 4T1, day 20, mice 1-7", "value": "0.9 and 0.968 and 0.8 and 1.44 and 0.648"},
      {"measurement": "tumor size, Average", "setting": "[2]; 4T1, day 22, average of 7 mice", "value": 1.032},
      {"measurement": "tumor size, individual mice", "setting": "[2]; 4T1, day 22, mice 1-7", "value": "0.9 and 0.968 and 0.8 and 1.859"},
      {"measurement": "tumor size, Average", "setting": "[2]; 4T1, day 25, average of 7 mice", "value": 1.344},
      {"measurement": "tumor size, individual mice", "setting": "[2]; 4T1, day 25, mice 1-7", "value": "1.089 and 1.44 and 1 and 2.7"},
      {"measurement": "tumor size, Average", "setting": "[2]; 4T1, day 27, average of 7 mice", "value": 1.752},
      {"measurement": "tumor size, individual mice", "setting": "[2]; 4T1, day 27, mice 1-7", "value": "1.69 and 1.859 and 1.44 and 1.584 and 1.21 and 3.15 and 1.331"},
      {"measurement": "tumor size, Average", "setting": "[2]; 4T1, day 29, average of 7 mice", "value": 2.057},
      {"measurement": "tumor size, individual mice", "setting": "[2]; 4T1, day 29, mice 1-7", "value": "1.69 and 2.028 and 1.859 and 1.584 and 4.046 and 1.331"},
      {"measurement": "tumor size, Average", "setting": "[2]; 4T1, day 32, average of 7 mice", "value": 2.639},
      {"measurement": "tumor size, individual mice", "setting": "[2]; 4T1, day 32, mice 1-7", "value": "2.156 and 2.7 and 2.028 and 5.184 and 2.352"},
      {"measurement": "tumor size, Average", "setting": "[2]; 4T1, day 34, average of 7 mice", "value": 3.227},
      {"measurement": "tumor size, individual mice", "setting": "[2]; 4T1, day 34, mice 1-7", "value": "2.925 and 2.548 and 2.744 and 5.776"},
      {"measurement": "tumor size, Average", "setting": "[2]; 4T1, day 36, average of 7 mice", "value": 3.574},
      {"measurement": "tumor size, individual mice", "setting": "[2]; 4T1, day 36, mice 1-7", "value": "2.925 and 3.15 and 7.2 and 2.744"},
      {"measurement": "Tumor growth vs DMSO, in words", "setting": "[2]; 4T1, nude mice, force-fed daily, 5 weeks", "value": "no significant difference in tumor growth"}
    ]}
  ]
}
